Test results published in US6642217B2, “Triterpenes having human antifungal and antiyeast activity” (Naturtek, LLC, priority 2000, dated 2003).

Legend:
Trichophyton rubrum [1] = assay: Direct addition method, solid compound in Sabouraud dextrose agar; type: cell-based; parameters: key: +++: Maximum Fungal Growth; ++: Moderate Fungal Growth; +: Minimum Fungal Growth; +/−: Very little Fungal Growth; −: No Fungal Growth; conditions: 4 mg/mL of agar; 12th day after inoculation
Protocol: (§1) Direct addition method. Sabouraud dextrose agar was prepared according to the manufacturer's instructions and 5.0 ml was dispensed in each 100×25 mm tube. The tubes were autoclaved. To each tube containing 5.0 ml of liquid agar at 45° C., 20 mg of solid test compound was added, to give a final concentration of 4 mg/ml. The agar was solidified in slants. The fungal cultures were then innoculated. The slants were incubated at 25-28 ° C. for 10-12 days, and the growth of the fungus was recorded every second day. The results in Table 2 indicate growth at the 12th day of inoculation.

Pityrosporum ovale [2] = assay: as above; type: cell-based; parameters: key: +++: Maximum Fungal Growth; ++: Moderate Fungal Growth; +: Minimum Fungal Growth; +/−: Very little Fungal Growth; −: No Fungal Growth; conditions: 4 mg/mL of agar; 12th day after inoculation
Protocol: as §1

Microsporum canis [3] = assay: as above; type: cell-based; parameters: key: +++: Maximum Fungal Growth; ++: Moderate Fungal Growth; +: Minimum Fungal Growth; +/−: Very little Fungal Growth; −: No Fungal Growth; conditions: 4 mg/mL of agar; 12th day after inoculation
Protocol: as §1

Epidermophyton floccosum [4] = assay: as above; type: cell-based; parameters: key: +++: Maximum Fungal Growth; ++: Moderate Fungal Growth; +: Minimum Fungal Growth; +/−: Very little Fungal Growth; −: No Fungal Growth; conditions: 4 mg/mL of agar; 12th day after inoculation
Protocol: as §1

Microsporum audouinni [5] = assay: as above; type: cell-based, Microsporum audouinii; parameters: key to Fungal growth: +++: Maximum Fungal Growth; ++: Moderate Fungal Growth; +: Minimum Fungal Growth; +/−: Very little Fungal Growth; −: No Fungal Growth; conditions: for Fungal growth: 4 mg/mL of agar, 12th day after inoculation
Protocol: as §1

Pityrosporum ovale [6] = assay: Direct addition into the Pityrosporum agar; type: cell-based; parameters: key to Pityrosporum ovale growth: +++: Maximum Growth; ++: Moderate Growth; +: Minimum Growth; +/−: Very Little Growth; −: No Growth; conditions: for Pityrosporum ovale growth: 4 mg/ml in the agar, 18 hours after inoculation
Protocol: as §1, with “The slants were incubated at 25-28 ° C. for 10-12 days, and the growth of the fungus was recorded every second day. The results in Table 2 indicate growth at the 12th day of inoculation.” left out

Microsporum audouinni [7] = assay: Agar dilution method, growth on Sabouraud dextrose agar slants; type: cell-based, Microsporum audouinii; parameters: key: +++: Maximum Fungal Growth; ++: Moderate Fungal Growth; +: Minimum Fungal Growth; +/−: Very little Fungal Growth; −: No Fungal Growth; conditions: 12th day after inoculation
Protocol: (§2) Agar dilution method. Sabouraud Dextrose Agar (Difco Laboratories, Michigan) was prepared according to the manufacturer's instructions. Five ml was dispensed in a 100×25 mm tube and autoclaved. To each tube containing 5.0 ml of liquid agar at 45° C., 0.5, 0.25, 0.12, or 0.063 ml of a DMSO solution of the compound was added to give the final indicated concentrations in Table 2. The agar was then solidified in slants. Fungal cultures were inoculated. The slants were incubated at 25-28° C. for 10-12 days, and the growth of the fungus was recorded every second day.

[8] = tested on: Trichophyton mentagrophyte; assay: as above; type: cell-based, Trichophyton mentagrophytes; parameters: key to Fungal growth: +++: Maximum Fungal Growth; ++: Moderate Fungal Growth; +: Minimum Fungal Growth; +/−: Very little Fungal Growth; −: No Fungal Growth; conditions: for Fungal growth: 12th day after inoculation
Protocol: as §2

Trichophyton rubrum [9] = assay: as above; type: cell-based; parameters: key: +++: Maximum Fungal Growth; ++: Moderate Fungal Growth; +: Minimum Fungal Growth; +/−: Very little Fungal Growth; −: No Fungal Growth; conditions: 12th day after inoculation
Protocol: as §2

Pityrosporum ovale [10] = assay: as above; type: cell-based; parameters: key: +++: Maximum Fungal Growth; ++: Moderate Fungal Growth; +: Minimum Fungal Growth; +/−: Very little Fungal Growth; −: No Fungal Growth; conditions: 12th day after inoculation
Protocol: as §2

Microsporum canis [11] = assay: as above; type: cell-based; parameters: key: +++: Maximum Fungal Growth; ++: Moderate Fungal Growth; +: Minimum Fungal Growth; +/−: Very little Fungal Growth; −: No Fungal Growth; conditions: 12th day after inoculation
Protocol: as §2

Microsporum gypseum = assay: as above; type: cell-based; parameters: key: +++: Maximum Fungal Growth; ++: Moderate Fungal Growth; +: Minimum Fungal Growth; +/−: Very little Fungal Growth; −: No Fungal Growth; conditions: 12th day after inoculation
Protocol: as §2

Epidermophyton floccosum [12] = assay: as above; type: cell-based; parameters: key to Fungal growth: +++: Maximum Fungal Growth; ++: Moderate Fungal Growth; +: Minimum Fungal Growth; +/−: Very little Fungal Growth; −: No Fungal Growth; conditions: 12th day after inoculation
Protocol: as §2

Trichophyton tonsuran = assay: as above; type: cell-based, Trichophyton tonsurans; parameters: key: +++: Maximum Fungal Growth; ++: Moderate Fungal Growth; +: Minimum Fungal Growth; +/−: Very little Fungal Growth; −: No Fungal Growth; conditions: 12th day after inoculation
Protocol: as §2

Microsporum audouinii = assay: Summary of anti-fungal assays (direct addition, agar dilution, liquid culture); type: cell-based; conditions: stated in words (Tables 1a/1b, text to Table 5)
Protocol: This example summarizes the results of various other assays of the anti-fungal activity of betulin derivatives. Table 5 summarizes results using different assay methods—direct addition, agar dilution, and direct addition to liquid culture, as disclosed in the previous three Examples. In some cases, only one type of assay was done with a compound. In other cases, the compound was tested by multiple assays.

| Compound | Fungal growth (Trichophyton rubrum [1]) | Fungal growth (Pityrosporum ovale [2]) | Fungal growth (Microsporum canis [3]) | Fungal growth (Epidermophyton floccosum [4]) | Fungal growth (Microsporum audouinni [5]) | Pityrosporum ovale growth (Pityrosporum ovale [6]) | Fungal growth (Microsporum audouinni [7]; 125 μg/ml) | Fungal growth (Microsporum audouinni [7]; 250 μg/ml) | Fungal growth (Microsporum audouinni [7]; 500 μg/ml) | Fungal growth (Microsporum audouinni [7]; 1000 μg/ml) | Fungal growth ([8]; 125 μg/ml) | Fungal growth ([8]; 250 μg/ml) | Fungal growth ([8]; 500 μg/ml) | Fungal growth ([8]; 1000 μg/ml) | Fungal growth (Trichophyton rubrum [9]; 125 μg/ml) | Fungal growth (Trichophyton rubrum [9]; 250 μg/ml) | Fungal growth (Trichophyton rubrum [9]; 500 μg/ml) | Fungal growth (Trichophyton rubrum [9]; 1000 μg/ml) | Fungal growth (Pityrosporum ovale [10]; 125 μg/ml) | Fungal growth (Pityrosporum ovale [10]; 250 μg/ml) | also measured |
| --- | --- | --- | --- | --- | --- | --- | --- | --- | --- | --- | --- | --- | --- | --- | --- | --- | --- | --- | --- | --- | --- |
| CC1(C)CCC23CCC4(C)C(CCC5C6(C)CCC(OC(=O)CN)C(C)(C)C6CCC54C)C2C1OC3 (stereo not shown) [Allobetulin-3-glycine] | ++ | − | + | − | + | + |  |  |  |  |  |  |  |  |  |  |  |  |  |  |  |
| C=C(C)[C@@H]1CC[C@]2(COC(=O)COCC(=O)O)CC[C@]3(C)[C@H](CC[C@@H]4[C@@]5(C)CC[C@H](OC(=O)COCC(=O)O)C(C)(C)[C@@H]5CC[C@]43C)[C@@H]12 [Betulin-3,28-didiglycolate] |  |  |  |  |  |  | ++ | ++ | − | − | + | + | +/− | − | ++ | + | + | − | +++ | +++ | best antifungal or anti-yeast activity by the agar dilution method ([8]; against Trichophyton mentagrophytes): against Trichophyton mentagrophytes; Fungal growth (Pityrosporum ovale [10]; 500 μg/ml): ++; Fungal growth (Pityrosporum ovale [10]; 1000 μg/ml): +/−; Fungal growth (Microsporum canis [11]; 125 μg/ml): +++; Fungal growth (Microsporum canis [11]; 250 μg/ml): +++; Fungal growth (Microsporum canis [11]; 500 μg/ml): +; Fungal growth (Microsporum canis [11]; 1000 μg/ml): −; Fungal growth (Microsporum gypseum; 125 μg/ml): +++; Fungal growth (Microsporum gypseum; 250 μg/ml): +++; Fungal growth (Microsporum gypseum; 500 μg/ml): ++; Fungal growth (Microsporum gypseum; 1000 μg/ml): −; Fungal growth (Epidermophyton floccosum [12]; 125 μg/ml): ++; Fungal growth (Epidermophyton floccosum [12]; 250 μg/ml): +; Fungal growth (Epidermophyton floccosum [12]; 500 μg/ml): −; Fungal growth (Epidermophyton floccosum [12]; 1000 μg/ml): −; Fungal growth (Trichophyton tonsuran; 125 μg/ml): ++; Fungal growth (Trichophyton tonsuran; 250 μg/ml): +; Fungal growth (Trichophyton tonsuran; 500 μg/ml): +; Fungal growth (Trichophyton tonsuran; 1000 μg/ml): − |
| C=C(C)[C@@H]1CC[C@]2(COC(=O)CCCC(=O)O)CC[C@]3(C)[C@H](CC[C@@H]4[C@@]5(C)CC[C@H](OC(=O)CCCC(=O)O)C(C)(C)[C@@H]5CC[C@]43C)[C@@H]12 [Betulin-3,28-diglutarate] | + | − | + | − | + | +/− |  |  |  |  |  |  |  |  |  |  |  |  |  |  | Growth inhibition of Pityrosporum ovale by the direct addition method (Pityrosporum ovale [6]; 4 mg/ml): inhibited the growth |
| C=C(C)[C@@H]1CC[C@]2(COC(=O)/C=C\C(=O)O)CC[C@]3(C)[C@H](CC[C@@H]4[C@@]5(C)CC[C@H](OC(=O)/C=C\C(=O)O)C(C)(C)[C@@H]5CC[C@]43C)[C@@H]12 [Betulin-3,28-dimaleate] | + | − | + | − | − | + |  |  |  |  |  |  |  |  |  |  |  |  |  |  | best anti-fungal or anti-yeast activity by the direct addition method (Microsporum audouinni [5]; against Microsporum audouinii): against Microsporum audouinii; Active against Microsporum audouinii (Microsporum audouinii): Microsporum audouinii |
| C=C(C)C1CCC2(CO)CCC3(C)C(CCC4C5(C)CCC(OC(=O)C=CC(=O)O)C(C)(C)C5CCC43C)C12 (stereo not shown) [Betulin-3-maleate] |  |  |  |  |  |  | +/− | +/− | − | − | ++ | + | +/− | − | ++ | ++ | + | − | +++ | +++ | Fungal growth (Pityrosporum ovale [10]; 500 μg/ml): ++; Fungal growth (Pityrosporum ovale [10]; 1000 μg/ml): +/−; Fungal growth (Microsporum canis [11]; 125 μg/ml): +; Fungal growth (Microsporum canis [11]; 250 μg/ml): +/−; Fungal growth (Microsporum canis [11]; 500 μg/ml): +/−; Fungal growth (Microsporum canis [11]; 1000 μg/ml): −; Fungal growth (Microsporum gypseum; 125 μg/ml): +++; Fungal growth (Microsporum gypseum; 250 μg/ml): ++; Fungal growth (Microsporum gypseum; 500 μg/ml): ++; Fungal growth (Microsporum gypseum; 1000 μg/ml): −; Fungal growth (Epidermophyton floccosum [12]; 125 μg/ml): ++; Fungal growth (Epidermophyton floccosum [12]; 250 μg/ml): +; Fungal growth (Epidermophyton floccosum [12]; 500 μg/ml): −; Fungal growth (Epidermophyton floccosum [12]; 1000 μg/ml): −; Fungal growth (Trichophyton tonsuran; 125 μg/ml): ++; Fungal growth (Trichophyton tonsuran; 250 μg/ml): ++; Fungal growth (Trichophyton tonsuran; 500 μg/ml): +; Fungal growth (Trichophyton tonsuran; 1000 μg/ml): − |
| COC1=CC(=O)C[C@@H](C)[C@]12Oc1c(Cl)c(OC)cc(OC)c1C2=O [Griseofulvin, reference compound] | − | − | − | − | − | + | − | − | − | − | ++ | + | − | − | +/− | +/− | − | − | +++ | +++ | Fungal growth (Pityrosporum ovale [10]; 500 μg/ml): ++; Fungal growth (Pityrosporum ovale [10]; 1000 μg/ml): −; Fungal growth (Microsporum canis [11]; 125 μg/ml): +/−; Fungal growth (Microsporum canis [11]; 250 μg/ml): +/−; Fungal growth (Microsporum canis [11]; 500 μg/ml): −; Fungal growth (Microsporum canis [11]; 1000 μg/ml): −; Fungal growth (Microsporum gypseum; 125 μg/ml): +/−; Fungal growth (Microsporum gypseum; 250 μg/ml): +/−; Fungal growth (Microsporum gypseum; 500 μg/ml): −; Fungal growth (Microsporum gypseum; 1000 μg/ml): −; Fungal growth (Epidermophyton floccosum [12]; 125 μg/ml): ++; Fungal growth (Epidermophyton floccosum [12]; 250 μg/ml): +; Fungal growth (Epidermophyton floccosum [12]; 500 μg/ml): −; Fungal growth (Epidermophyton floccosum [12]; 1000 μg/ml): −; Fungal growth (Trichophyton tonsuran; 125 μg/ml): +/−; Fungal growth (Trichophyton tonsuran; 250 μg/ml): +/−; Fungal growth (Trichophyton tonsuran; 500 μg/ml): −; Fungal growth (Trichophyton tonsuran; 1000 μg/ml): − |
| C=C(C)C1CCC2(C)CCC3(C)C(CCC4C5(C)CCC(OC(=O)CCC(=O)O)C(C)(C)C5CCC43C)C12 (stereo not shown) [Lupeol-3-succinate] | + | − | + | − | + | + |  |  |  |  |  |  |  |  |  |  |  |  |  |  |  |
